In patent US11707479B2, “Combination formulation of two antiviral compounds” (priority 2013, dated 2023):
Where two headings read alike, the source gives them in different places.

Key:
[1] = Single and multiple oral doses of Compound I: pharmacokinetics; conditions: human, in vivo
[2] = PK drug-drug interaction between SOF and Compound I; type: in vivo, human; conditions: for AUCinf % GLSM Ratio (SOF + Compound I/SOF) (90% CI) / AUClast % GLSM Ratio (SOF + Compound I/SOF) (90% CI) / Cmax % GLSM Ratio (SOF + Compound I/SOF) (90% CI): SOF 400 mg + Compound I 150 mg vs SOF 400 mg
[3] = Food effect on Compound I solid dispersion as single agent; type: in vivo, human; conditions: Compound I 100 mg
genotype 1-6 HCV = experiment: Compound I 3-day monotherapy study; type: in vivo, Hepatitis C virus
[4] = Spray dry feed solution solvent evaluation: solubility; type: physicochemical; conditions: Ethanol, methanol, acetone, and dichloromethane
Description: The feed solution was initially evaluated for appropriate solvent with regard to solubility, stability, and viscosity. […] Ethanol and methanol-based feed stocks were assessed for preparation ease and spray dried at a range of inlet and outlet temperatures to assess the robustness of the spray dry process. Both solvents gave rapid dissolution of Compound I and copovidone.

[5] = Chemical stability in ethanolic feed solution; type: physicochemical
HCV RNA = experiment: Emax PK/PD modeling of sofosbuvir dose; design: species or system Hepatitis C virus; conditions: 400 mg sofosbuvir dose, Emax model
Description: The sofosbuvir dose selected for the tablet formulation is 400 mg once daily. Support for the 400 mg sofosbuvir dose can be derived from Emax PK/PD modeling with early virological and human exposure data which also supports the selection of a 400 mg sofosbuvir dose over others tested.
(§1) The mean sofosbuvir major metabolite AUCtau for the 400 mg sofosbuvir dose is associated with approximately 77% of the maximal HCV RNA change from baseline achievable as determined by this model, a value which is on the cusp of the plateau of the exposure-response sigmoidal curve. In a sigmoidal Emax model, there is a relatively linear exposure-response relationship in the 20 to 80% maximal effect range. Therefore, given that sofosbuvir exposure with 200 mg tablets appears dose-proportional with single doses up to 1200 mg, doses below 400 mg are expected to yield considerable reductions in the magnitude of HCV RNA change from baseline.

[6] = Sofosbuvir single dose exposure, 200 mg tablets; type: in vivo, human; conditions: single doses up to 1200 mg
Description: as §1

genotype 1 HCV = experiment: Sofosbuvir 400 mg vs 200 mg once daily with additional HCV therapeutics for 24 weeks; type: in vivo, Hepatitis C virus
Description: (§2) Safety and tolerability appeared similar across both dose levels. In addition, when sofosbuvir 400 mg once daily plus other HCV therapeutics were given to genotype 2 or 3 HCV infected patients, 100% SVR24 was observed.

genotype 2 or 3 HCV = experiment: Sofosbuvir 400 mg once daily plus other HCV therapeutics, SVR24; type: in vivo, Hepatitis C virus; conditions: genotype 2 or 3 HCV infected patients
Description: as §2

[7] = SOF 400 mg + Compound I 150 mg vs Compound I 150 mg
[8] = SOF 400 mg + Compound I 150 mg, GLSM
[9] = SOF 400 mg single dose alone, GLSM
[10] = human, in vivo, SOF 400 mg + Compound I 150 mg, GLSM

Structure (SMILES): COC[C@H]1C[C@@H](c2ncc(-c3ccc4c(c3)COc3cc5c(ccc6nc([C@@H]7CC[C@H](C)N7C(=O)[C@@H](NC(=O)OC)C(C)C)[nH]c65)cc3-4)[nH]2)N(C(=O)[C@H](NC(=O)OC)c2ccccc2)C1 [Compound I, methyl {(2S)-1-[(2S,5S)-2-(9-{2-[(2S,4S)-1-{(2R)-2-[(methoxycarbonyl)amino]-2-phenylacetyl}-4-(methoxymethyl)pyrrolidin-2-yl]-1H-imidazol-5-yl}-1,11-dihydroisochromeno[4′,3′ 6,7]naphtho[1,2-d]imidazol-2-yl)-5-methylpyrrolidin-1-yl]-3-methyl-1-oxobutan-2-yl}carbamate]
- CL/F ([1]; 5 mg): 58,398.0 mL/h
- CL/F ([1]; 50 mg): 19,188.4 mL/h
- CL/F ([1]; 100 mg): 24,617.9 mL/h
- CL/F ([1]; 450 mg): 53,676.4 mL/h
- Ctau ([2]; Compound I 150 mg multiple doses alone, GLSM): 101.09 ng/mL
- AUCtau % GLSM Ratio (SOF + Compound I/Compound I) (90% CI) [2, 7]: 111.71 (107.54, 116.04) %
- Cmax % GLSM Ratio (SOF + Compound I/Compound I) (90% CI) [2, 7]: 105.94 (101.86, 110.20) %
- Ctau % GLSM Ratio (SOF + Compound I/Compound I) (90% CI) [2, 7]: 117.61 (111.94, 123.57) %
- Ctau [2, 8]: 118.90 ng/mL
- AUC ([2]; human, plasma, oral, Compound I 150 mg multiple doses alone, GLSM): 7280 ng·h/mL
- Cmax ([2]; human, plasma, oral, Compound I 150 mg multiple doses alone, GLSM, read-out: Cmax): 932 ng/mL
- AUC ([2]; human, plasma, oral, SOF 400 mg + Compound I 150 mg, GLSM): 8140 ng·h/mL
- Cmax ([2]; human, plasma, oral, SOF 400 mg + Compound I 150 mg, GLSM, read-out: Cmax): 988 ng/mL
- AUCinf % GLSM Ratio (Fed/Fasted) ([3]; HFM): 86.30%
- AUClast % GLSM Ratio (Fed/Fasted) ([3]; HFM): 86.02%
- Cmax % GLSM Ratio (Fed/Fasted) ([3]; HFM): 75.02%
- AUCinf % GLSM Ratio (Fed/Fasted) ([3]; Light Breakfast): 124.72%
- AUClast % GLSM Ratio (Fed/Fasted) ([3]; Light Breakfast): 124.84%
- Cmax % GLSM Ratio (Fed/Fasted) ([3]; Light Breakfast): 134.89%
- activity against genotype 1-6 HCV (genotype 1-6 HCV): potent activity
- solubility in feed solvent [4]: excellent solubility
- chemical stability [5]: good chemical stability

Structure (SMILES): CC(C)OC(=O)[C@H](C)N[P@](=O)(OC[C@H]1O[C@@H](n2ccc(=O)[nH]c2=O)[C@](C)(F)[C@@H]1O)Oc1ccccc1 [sofosbuvir, (S)-isopropyl 2-(((S)-(((2R,3R,4R,5R)-5-(2,4-dioxo-3,4-dihydropyrimidin-1(2H)-yl)-4-fluoro-3-hydroxy-4-methyltetrahydrofuran-2-yl)methoxy)(phenoxy)phosphoryl)amino)propanoate, reference compound]
- AUCinf % GLSM Ratio (SOF + Compound I/SOF) (90% CI) [2]: 237.77 (214.27, 263.85) %
- AUClast % GLSM Ratio (SOF + Compound I/SOF) (90% CI) [2]: 238.10 (214.62, 264.16) %
- Cmax % GLSM Ratio (SOF + Compound I/SOF) (90% CI) [2]: 181.06 (149.43, 219.38) %
- AUCinf [2, 9]: 1159.50 ng·h/mL
- increase in AUC when SOF coadministered with Compound I [2]: ~2.4 fold
- increase in Cmax when SOF coadministered with Compound I [2]: approximately 1.8 fold
- AUC(0-inf) [2, 10]: 2760 ng·h/mL
- AUC(0-t) [2, 10]: 2750 ng·h/mL
- Cmax ([2]; human, in vivo, SOF 400 mg + Compound I 150 mg, GLSM, read-out: Cmax): 1590 ng/mL
- AUC(0-t) ([2]; human, in vivo, SOF 400 mg single dose alone, GLSM): 1150 ng·h/mL
- Cmax ([2]; human, in vivo, SOF 400 mg single dose alone, GLSM, read-out: Cmax): 880 ng/mL
- fraction of the maximal HCV RNA change from baseline achievable, associated with mean major metabolite AUCtau (HCV RNA): approximately 77%
- dose proportionality of exposure [6]: dose-proportional
- Safety and tolerability across both dose levels (genotype 1 HCV; 400 mg vs 200 mg once daily): similar
- SVR rates, 400 mg once daily compared to 200 mg once daily (genotype 1 HCV; genotype 1 HCV infected patients, with additional HCV therapeutics for 24 weeks): higher SVR rates
- SVR24 (genotype 2 or 3 HCV): 100%

Structure (SMILES): C[C@@]1(F)[C@H](O)[C@@H](CO)O[C@H]1n1ccc(=O)[nH]c1=O [SOF metabolite II]
- AUCinf % GLSM Ratio (SOF + Compound I/SOF) (90% CI) [2]: 116.32 (110.99, 121.90) %
- AUClast % GLSM Ratio (SOF + Compound I/SOF) (90% CI) [2]: 112.86 (107.90, 118.05) %
- Cmax % GLSM Ratio (SOF + Compound I/SOF) (90% CI) [2]: 64.17 (58.45, 70.44) %
- AUCinf [2, 8]: 13,774.96 ng · h/mL
- AUClast [2, 8]: 12,610.86 ng · h/mL
- Cmax [2, 8]: 693.62 ng/mL
- AUCinf [2, 9]: 11,842.52 ng · h/mL
- AUClast [2, 9]: 11,173.87 ng · h/mL
- Cmax [2, 9]: 1080.97 ng/mL

Structure (SMILES): C[C@H](NP(=O)(O)OC[C@H]1O[C@@H](n2ccc(=O)[nH]c2=O)[C@](C)(F)[C@@H]1O)C(=O)O [SOF metabolite I]
- AUCinf % GLSM Ratio (SOF + Compound I/SOF) (90% CI) [2]: 179.42 (165.03, 195.06) %
- AUClast % GLSM Ratio (SOF + Compound I/SOF) (90% CI) [2]: 182.35 (167.52, 198.50) %
- Cmax % GLSM Ratio (SOF + Compound I/SOF) (90% CI) [2]: 161.68 (145.27, 179.94) %
- AUCinf [2, 8]: 3455.70 ng·h/mL
- AUClast [2, 8]: 3394.32 ng·h/mL
- Cmax [2, 8]: 736.88 ng/mL
- AUCinf [2, 9]: 1926.09 ng·h/mL
- AUClast [2, 9]: 1861.41 ng·h/mL
- Cmax [2, 9]: 455.77 ng/mL
- increase in AUC when SOF coadministered with Compound I [2]: approximately 1.8 fold
- increase in Cmax when SOF coadministered with Compound I [2]: approximately 1.6 fold
